Experiments:
Type in all cases: in vivo
[1] = test system: wheat (Triticum aestivum); assay: Test A pre-/postemergence: wheat; details: for Wheat plant response rating: Postemergence; for Plant response rating, Wheat: Preemergence
Method in brief: (§1)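 Whole-plant greenhouse assay in loam/sand. Preemergence directed soil spray plus simultaneous postemergence spray (one- to two-leaf stage, 2–10 cm). Rated visually ~10 days later, 0 = no effect, 100 = complete control.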

rice (Oryza sativa) = assay: Test C flooded paddy test: rice; details: scale 0 to 100 (0 no effect, 100 complete control)
Method in brief: (§2)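 Visual ratings from 0 (no effect) to 100 (complete control), made against untreated controls 13 to 15 days after treatment, express plant response. Compounds went directly into paddy water over 2-leaf stage plants in pots flooded to 3 cm.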

[2] = test system: ducksalad (Heteranthera limosa); assay: Test C flooded paddy test: ducksalad; details: scale 0 to 100 (0 no effect, 100 complete control)
Method in brief: as §2

[3] = test system: velvetleaf (Abutilon theophrasti); assay: Test A pre-/postemergence: velvetleaf; details: for Velvetleaf plant response rating: Postemergence; for Plant response rating, Velvetleaf: Preemergence
Method in brief: as §1

corn (Zea mays) = assay: Test A pre-/postemergence: corn; details: for Corn plant response rating: Postemergence; for Plant response rating, Corn: Preemergence
Method in brief: as §1

[4] = test system: sedge, umbrella (small-flower umbrella sedge, Cyperus difformis); assay: Test C flooded paddy test: sedge, umbrella; details: scale 0 to 100 (0 no effect, 100 complete control)
Method in brief: as §2

[5] = test system: pigweed (Amaranthus retroflexus); assay: Test A pre-/postemergence: pigweed; details: for Pigweed plant response rating: Postemergence; for Plant response rating, Pigweed: Preemergence
Method in brief: as §1

[6] = test system: morningglory (Ipomoea spp.); assay: Test A pre-/postemergence: morningglory; details: Postemergence
Method in brief: as §1

[7] = test system: barnyardgrass (Echinochloa crus-galli); assay: Test A pre-/postemergence: barnyardgrass; details: for Barnyardgrass plant response rating: Postemergence; for Plant response rating, Barnyardgrass: Preemergence
Method in brief: as §1

[8] = test system: barnyardgrass (Echinochloa crus-galli); assay: Test C flooded paddy test: barnyardgrass; details: scale 0 to 100 (0 no effect, 100 complete control)
Method in brief: as §2

[9] = test system: foxtail, giant (giant foxtail, Setaria faberii); assay: Test A pre-/postemergence: foxtail, giant; details: for Foxtail, Giant plant response rating: Postemergence; for Plant response rating, Foxtail, Giant: Preemergence
Method in brief: as §1

[10] = test system: crabgrass, large (large crabgrass, Digitaria sanguinalis); assay: Test A pre-/postemergence: crabgrass, large; details: for Crabgrass, Large plant response rating: Postemergence; for Plant response rating, Crabgrass, Large: Preemergence
Method in brief: as §1

[11] = 125 g ai/ha, 0 to 100 scale, 0 is no effect, 100 is complete control
[12] = 500 g ai/ha, visual rating on 0 to 100 scale (0 no effect, 100 complete control), approximately ten days
[13] = 125 g ai/ha, 0 to 100 scale (0 no effect, 100 complete control)
[14] = 500 g ai/ha, 0 to 100 scale, 0 is no effect, 100 is complete control
[15] = Flood (flooded paddy test), 62 g ai/ha, visual rating after 13 to 15 days
[16] = Flood (flooded paddy test), 125 g ai/ha, visual rating after 13 to 15 days
[17] = Flood (flooded paddy test), 250 g ai/ha, visual rating after 13 to 15 days

In the case of `COc1nn(-c2ccc(C(F)(F)F)cc2)nc1C(=O)c1ccnc(C(F)(F)F)c1` [Compound 75], the “Wheat plant response rating” value [1, 11] is reported as 0, the “Wheat plant response rating” value [1, 12] is reported as 0 and the “Plant response rating, Wheat” value [1, 13] is reported as 0. The “Plant response rating, Wheat” value [1, 14] was 10, the “Plant response rating, Rice” value (rice (Oryza sativa); [15]) was 0 and the “Plant response rating, Rice” value (rice (Oryza sativa); [16]) was 0. For the same molecule, the “Plant response rating, Rice” value (rice (Oryza sativa); [17]) was 0, the “Plant response rating, Rice” value (rice (Oryza sativa); Flood, 31 g ai/ha) was 0 and the “Plant response rating, Ducksalad” value [2, 15] was 0. For the same molecule, the “Plant response rating, Ducksalad” value [2, 16] was 0, the “Plant response rating, Ducksalad” value [2, 17] was 0 and the “Plant response rating, Ducksalad” value ([2]; Flood, 31 g ai/ha) was 0. The “Velvetleaf plant response rating” value [3, 11] was 10, the “Velvetleaf plant response rating” value [3, 12] was 10 and the “Plant response rating, Velvetleaf” value [3, 13] was 0. For the same molecule, the “Plant response rating, Velvetleaf” value [3, 14] was 0, the “Corn plant response rating” value (corn (Zea mays); [11]) was 0 and the “Corn plant response rating” value (corn (Zea mays); [12]) was 10. For the same molecule, the “Plant response rating, Corn” value (corn (Zea mays); [13]) was 0, the “Plant response rating, Corn” value (corn (Zea mays); [14]) was 0 and the “Plant response rating, Sedge, Umbrella” value [4, 15] was 0. The “Plant response rating, Sedge, Umbrella” value [4, 16] was 0, the “Plant response rating, Sedge, Umbrella” value [4, 17] was 0 and the “Plant response rating, Sedge, Umbrella” value ([4]; Flood, 31 g ai/ha) was 0. The “Pigweed plant response rating” value [5, 11] was 30, the “Pigweed plant response rating” value [5, 12] was 60 and the “Plant response rating, Pigweed” value [5, 13] was 30. The “Plant response rating, Pigweed” value [5, 14] was 40, the “Morningglory plant response rating” value [6, 11] was 0 and the “Morningglory plant response rating” value [6, 12] was 30. The “Barnyardgrass plant response rating” value [7, 11] was 0, the “Barnyardgrass plant response rating” value [7, 12] was 10 and the “Plant response rating, Barnyardgrass” value [7, 13] was 10. The “Plant response rating, Barnyardgrass” value [7, 14] was 20, the “Plant response rating, Barnyardgrass” value [8, 15] was 0 and the “Plant response rating, Barnyardgrass” value [8, 16] was 0. For the same molecule, the “Plant response rating, Barnyardgrass” value [8, 17] was 0, the “Plant response rating, Barnyardgrass” value ([8]; Flood, 31 g ai/ha) was 0 and the “Foxtail, Giant plant response rating” value [9, 11] was 10. The “Foxtail, Giant plant response rating” value [9, 12] was 20, the “Plant response rating, Foxtail, Giant” value [9, 13] was 50 and the “Plant response rating, Foxtail, Giant” value [9, 14] was 90. For the same molecule, the “Crabgrass, Large plant response rating” value [10, 11] was 10, the “Crabgrass, Large plant response rating” value [10, 12] was 20 and the “Plant response rating, Crabgrass, Large” value [10, 13] was 20. For the same molecule, the “Plant response rating, Crabgrass, Large” value [10, 14] was 70.

— US9302999B2, “Substituted triazoles as herbicides” (E. I. DU PONT DE NEMOURS AND COMPANY, priority 2012, dated 2016)
